Measurements reported in patent US5047413A (priority 1987, dated 1991).
≈ marks a conversion by molar mass, not a printed value. Entries after “also recorded” stand apart in the source; their conditions may differ. Where two headings read alike, the source gives them in different places.

Columns and labels:
guinea pig ileum = assay: tissue or blood
[1] = M. Blau, U. Retzke, Zbl. Gynakol. 100 (1984); cited from earlier work
urinary bladder = details: literature, background; cited from earlier work
guinea pig taenia coli = assay: tissue or blood; details: Cavia porcellus
[2] = tested on: guinea-pig urinary bladder muscle; assay: tissue or blood

CCCOC(C(=O)OC1CCN(C)CC1)(c1ccccc1)c1ccccc1 [propiverine, 1-methyl-4-piperidyl α,α-diphenyl-α-(n-propoxy)acetate]
predominating effect, neurotropic/spasmolytic versus myotropic/spasmolytic (in words) (guinea pig ileum): the undesired myotropic/spasmolytic effect predominates | EC50 (guinea pig ileum; Cavia porcellus, read-out: Neurotropic/spasmolytic activity, Ileum, Carbachol 50 ng/ml): 0.059 µg/mL (≈ 0.161 µM) | effect on blood pressure (in words) [1]: lowering of the blood pressure | side effects (in words) (urinary bladder): not amenable to general use because of certain side effects | therapeutic utility for the tone of the urinary bladder (in words) (urinary bladder): has shown therapeutic utility; also recorded: insufficiently effective in some patients | EC50 (guinea pig taenia coli; read-out: ED50 (myotropic/spasmolytic activity)): 2 µg/mL (≈ 5.44 µM) | EC50 (guinea pig taenia coli; read-out: Myotropic/spasmolytic activity, Taenia coli, Barium 200 μg/ml (EC 50)): 12 µg/mL (≈ 32.7 µM) | myotropic/spasmolytic activity compared with papaverine (in words) [2]: reaches the potency of papaverine | EC50 ([2]; Cavia porcellus, read-out: ED50 (myotropic/spasmolytic activity)): 53 µg/mL (≈ 144 µM)
